Assay results: article PMC4390081 (Biochemistry, 2013)

Target: chlorite dismutase (DaCld) (Dechloromonas aromatica (nom. nud.), UniProt Q47CX0)
Assay: steady-state peroxidase assay
Type: biochemical

Sequence of chlorite dismutase (DaCld) (Q47CX0 35-282): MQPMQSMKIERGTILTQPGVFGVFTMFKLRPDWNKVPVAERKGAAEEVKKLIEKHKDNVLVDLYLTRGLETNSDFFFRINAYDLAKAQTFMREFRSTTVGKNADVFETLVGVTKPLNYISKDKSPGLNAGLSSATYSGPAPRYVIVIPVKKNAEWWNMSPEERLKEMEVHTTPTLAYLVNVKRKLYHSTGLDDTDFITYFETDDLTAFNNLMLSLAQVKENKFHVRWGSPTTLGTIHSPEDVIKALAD

COc1ccccc1O [guaiacol, 2-methoxyphenol]
kcat (S^-1): 2.8 s⁻¹
